Converted amounts (≈) assume the structure as drawn.
Columns and labels:
Experiment in all cases: MIC by agar-dilution, standard in vitro test system
Type in all cases: cell-based
Settings in all cases: IsoSensitest agar, inoculum 10^4 CFU/spot, 37° C. for 24 hours
[1] = test system: Coagulase Negative Staphylococcus MR (methicillin resistant)
Procedure: (§1) The following results were obtained on a standard in vitro test system. The activity is described in terms of the minimum inhibitory concentration (MIC) determined by the agar-dilution technique with an inoculum size of 10^4 CFU/spot.
(§2) The organisms were tested on a standard semi-defined susceptability test medium (IsoSensitest agar), using an inoculum of 10^4 CFU/spot and an incubation temperature of 37° C. for 24 hours.

[2] = test system: Coagulase Negative Staphylococcus MS
Procedure: as §1, with “CFU/spot. The organisms were tested on a standard semi-defined susceptability test medium (IsoSensitest agar), using an inoculum of 10^4 CFU/spot and an incubation temperature of 37° C. for 24 hours.” for “CFU/spot.”

[3] = test system: Streptococcus pyogenes C203
Procedure: as §1, with “CFU/spot. The organisms were tested on a standard semi-defined susceptability test medium (IsoSensitest agar), using an inoculum of 10^4 CFU/spot and an incubation temperature of 37° C. for 24 hours.” for “CFU/spot.”

[4] = test system: Staphylococcus aureus Oxford
Procedure: as §1, with “CFU/spot. The organisms were tested on a standard semi-defined susceptability test medium (IsoSensitest agar), using an inoculum of 10^4 CFU/spot and an incubation temperature of 37° C. for 24 hours.” for “CFU/spot.”

Bacillus subtilis = test system: Bacillus subtilis
Procedure: as §1, with “CFU/spot. The organisms were tested on a standard semi-defined susceptability test medium (IsoSensitest agar), using an inoculum of 10^4 CFU/spot and an incubation temperature of 37° C. for 24 hours.” for “CFU/spot.”

Enterococcus faecalis = test system: Enterococcus faecalis
Procedure: as §1, with “CFU/spot. The organisms were tested on a standard semi-defined susceptability test medium (IsoSensitest agar), using an inoculum of 10^4 CFU/spot and an incubation temperature of 37° C. for 24 hours.” for “CFU/spot.”

[5] = test system: Staphylococcus aureus Novb. Res (Novobiocin resistant)
Procedure: as §1, §2
Novb. Res=Novobiocin resistant

[6] = test system: Staphylococcus aureus MRQR (methicillin resistant quinolone resistant)
Procedure: as §1, §2
MRQR=methicillin resistant quinolone resistant

- MIC [1]: 0.25 µg/mL (≈ 0.562 µM)
- MIC [2]: 0.06 µg/mL (≈ 0.135 µM)
- MIC [3]: 0.125 µg/mL (≈ 0.281 µM)
- MIC [4]: 0.125 µg/mL (≈ 0.281 µM)
- MIC (Bacillus subtilis): 0.25 µg/mL (≈ 0.562 µM)
- MIC (Enterococcus faecalis): 0.5 µg/mL (≈ 1.12 µM)
- MIC [5]: 0.25 µg/mL (≈ 0.562 µM)
- MIC [6]: 1 µg/mL (≈ 2.25 µM)
Compound: CC(=O)NC[C@H]1CN(c2ccc(-n3cnc(C(=O)Nc4nccs4)c3)c(F)c2)C(=O)O1 [Example 43, N-[(5S)-3-(3-Fluoro-4-(4-(thiazol-2-ylaminocarbonyl)imidazol-1-yl)phenyl)-2-oxooxazolidin-5-ylmethyl]acetamide]
